Test results taken from the supplement of paper PMC10307832.

Assays:
Experiment in all cases: relative viability (nuclei count vs DMSO), 5 days (fraction); higher = more cells survive
RU-SKI 43 = compound: CC[C@@H](C)CNCC(=O)N1CCC2=C([C@@H]1COC3=CC=CC(=C3)C)C=CS2 [RU-SKI 43]
How it was run: (§1)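 Hoechst staining, done together with fixation and permeabilisation, marked nuclei for 4× imaging and MetaXpress counting. This followed 5 days without medium change after lung cancer cell lines, kept overnight at 37 °C in 1536-well plates, were pinned with five library-drug doses (not always all listed) spaced by √10 on vehicle-anchored plates. Viability is the ratio of treated-well to vehicle-well nuclei, expressed as a median across plates. Plates passed only at control CV below 25% with at least one doubling.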

Irinotecan = compound: CCc1c2c(nc3ccc(OC(=O)N4CCC(N5CCCCC5)CC4)cc13)-c1cc3c(c(=O)n1C2)COC(=O)[C@]3(O)CC [Irinotecan]
How it was run: as §1

MK-8033 = compound: Cn1cc(-c2cnc3ccc4ccc(CS(=O)(=O)NCc5ccccn5)cc4c(=O)c3c2)cn1 [MK-8033]
How it was run: as §1

Irinotecan + Dasatinib = compound: CCc1c2c(nc3ccc(OC(=O)N4CCC(N5CCCCC5)CC4)cc13)-c1cc3c(c(=O)n1C2)COC(=O)[C@]3(O)CC [Irinotecan] + Cc1nc(Nc2ncc(C(=O)Nc3c(C)cccc3Cl)s2)cc(N2CCN(CCO)CC2)n1 [Dasatinib] (partner 0.075 µM)
How it was run: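 Lung cancer cell lines were pin-tool dosed in 1536-well plates on the day after seeding, with either a lone drug or a fixed anchor-drug dose plus five library-drug doses (not always all listed) in √10 steps. Nuclei were counted on 4× images after 5 days. Relative viability is the ratio of treated-well to vehicle-well nuclei counts, with each value a median of duplicate plates.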

Row | Cell Line | relative viability (RU-SKI 43; 0.1 µM) | relative viability (RU-SKI 43; 0.3162 µM) | relative viability (RU-SKI 43; 1 µM) | relative viability (RU-SKI 43; 3.162 µM) | relative viability (RU-SKI 43; 10 µM) | relative viability (Irinotecan; 0.6325 µM) | relative viability (Irinotecan; 2 µM) | relative viability (Irinotecan; 6.325 µM) | relative viability (Irinotecan; 20 µM) | relative viability (MK-8033; 0.02 µM) | relative viability (MK-8033; 0.06325 µM) | relative viability (MK-8033; 0.2 µM) | relative viability (MK-8033; 0.6325 µM) | relative viability (MK-8033; 2 µM) | relative viability (Irinotecan + Dasatinib; first compound 0.6325 µM) | relative viability (Irinotecan + Dasatinib; first compound 2 µM) | relative viability (Irinotecan + Dasatinib; first compound 6.325 µM) | relative viability (Irinotecan + Dasatinib; first compound 20 µM)
1 | NCI-H460 | 1.04 | 1.06 | 1.03 | 1.01 | 0.967 | 0.74 | 0.556 | 0.142 | 0.0536 | 0.992 | 0.945 | 0.96 | 1.06 | 1.03 | 0.402 | 0.301 | 0.0681 | 0.0459
2 | NCI-H520 | 1.07 | 1.08 | 1.09 | 1.06 | 0.938 | 0.898 | 0.726 | 0.365 | 0.325 | 1.06 | 0.98 | 1.01 | 1.03 | 0.928 | 0.192 | 0.214 | 0.202 | 0.161
3 | NCI-H522 | 1.02 | 1.05 | 1.16 | 0.982 | 1.17 | 0.694 | 0.844 | 0.52 | 0.639 | 0.983 | 0.793 | 0.954 | 1.05 | 0.959 | 0.639 | 0.868 | 0.485 | 0.532
4 | NCI-H596 | 0.945 | 0.965 | 1.01 | 0.963 | 0.983 | 0.889 | 1.07 | 0.914 | 0.643 | 0.918 | 0.838 | 0.971 | 0.983 | 1.04 | 0.576 | 0.765 | 0.703 | 0.633
5 | NCI-H647 | 1.04 | 0.987 | 1.13 | 1.07 | 0.996 | 0.866 | 0.815 | 0.191 | 0.142 | 0.919 | 0.943 | 0.89 | 0.935 | 0.874 | 0.123 | 0.187 | 0.131 | 0.0807
6 | NCI-H650 | 0.968 | 0.9 | 1.13 | 0.758 | 1.05 | 0.648 | 0.794 | 0.259 | 0.241 | 0.985 | 0.977 | 1.06 | 0.954 | 0.906 | 0.34 | 0.396 | 0.215 | 0.245
7 | NCI-H661 | 0.92 | 1.05 | 1.06 | 0.99 | 0.943 | 1.05 | 0.838 | 0.52 | 0.454 | 0.994 | 0.849 | 1.01 | 1.01 | 0.993 | 0.691 | 0.64 | 0.353 | 0.141
8 | NCI-H727 | 0.838 | 0.989 | 1.08 | 1.1 | 0.811 | 0.516 | 0.565 | 0.531 | 0.54 | 0.877 | 0.691 | 0.911 | 1.13 | 0.97 | 0.243 | 0.467 | 0.437 | 0.438
9 | NCI-H838 | 0.97 | 0.965 | 1.05 | 1 | 0.981 | 1.05 | 1.02 | 0.526 | 0.316 | 0.954 | 0.923 | 0.919 | 0.952 | 0.953 | 0.213 | 0.259 | 0.249 | 0.247
10 | NCI-H1355 | 1.02 | 1.12 | 1.08 | 1.04 | 0.921 |  | 0.948 | 0.426 | 0.3 | 1.02 | 0.894 | 0.914 | 1.01 | 0.992 |  | 0.85 | 0.511 | 0.272
11 | NCI-H1395 | 0.978 | 0.928 | 1.05 | 0.899 | 0.885 |  | 0.9 | 0.504 | 0.411 | 0.941 | 0.77 | 0.812 | 0.906 | 0.867 | 0.298 | 0.535 | 0.415 | 0.522
12 | NCI-H1437 | 1.07 | 1.04 | 1.14 | 1.04 | 0.986 | 0.824 | 0.719 | 0.426 | 0.289 | 0.964 | 0.972 | 0.919 | 1.01 | 0.93 | 0.229 | 0.534 | 0.254 | 0.111
13 | NCI-H1563 | 0.965 | 0.928 | 0.966 | 1.06 | 0.852 | 1.02 | 1.01 | 0.974 | 0.601 | 0.975 | 0.918 | 0.927 | 0.988 | 0.98 | 0.392 | 0.458 | 0.44 | 0.514
14 | NCI-H1623 | 1.02 | 0.958 | 1.03 | 1.06 | 0.883 | 0.866 | 0.703 | 0.275 | 0.297 | 0.87 | 0.96 | 0.839 | 0.992 | 1.02 | 0.391 | 0.442 | 0.214 | 0.22
15 | NCI-H1650 | 0.942 | 0.999 | 1.04 | 0.977 | 0.853 | 0.677 | 0.836 | 0.489 | 0.21 | 0.942 | 0.714 | 0.853 | 0.842 | 0.848 |  | 0.401 | 0.304 | 0.177
